Here are results for 43 compounds from patent publication US8063053B2, “1-(arylsulfonyl)-4-(piperazin-1-yl)-1H-benzimidazoles as 5-hydroxytryptamine-6 ligands” (Wyeth LLC, priority 2008, dated 2011).

T1 sequence (P50406 whole entry): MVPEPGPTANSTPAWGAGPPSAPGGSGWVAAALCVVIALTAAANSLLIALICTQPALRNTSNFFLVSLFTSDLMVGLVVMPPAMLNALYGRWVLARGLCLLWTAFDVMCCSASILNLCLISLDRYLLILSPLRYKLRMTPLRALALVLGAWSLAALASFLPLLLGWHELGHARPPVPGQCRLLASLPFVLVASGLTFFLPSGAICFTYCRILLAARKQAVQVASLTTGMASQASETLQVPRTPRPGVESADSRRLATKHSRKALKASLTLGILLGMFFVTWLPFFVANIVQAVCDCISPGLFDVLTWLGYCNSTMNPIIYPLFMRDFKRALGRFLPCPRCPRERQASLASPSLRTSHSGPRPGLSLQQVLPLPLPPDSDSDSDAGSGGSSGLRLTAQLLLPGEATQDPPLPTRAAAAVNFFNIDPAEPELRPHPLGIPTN

The first experiment concerns the target T1, serotonin 5-HT6 receptor subtype (Homo sapiens, UniProt P50406).
T1 construct: host or cells: CHO-Dukx-A2 cells, clone 50-7
The experiment can be described thus: 5-HT6 binding affinity ([3H]-LSD SPA binding).
Settings: not given
Take `O=S(=O)(c1ccccc1)n1cnc2c(N3CCNCC3)cccc21` [Example 3, 1-(phenylsulfonyl)-4-(piperazin-1-yl)-1H-benzo[d]imidazole]: the affinity corresponds to a Ki of 1.36 nM.

The experiment is the same for the next values; noted with them: CHO-Dukx-A2 cells expressing 5-HT6 receptor (clone 50-7); 3 nM [3H]-LSD; PVT WGA SPA beads; Ki by Cheng-Prusoff; read-out: 5-HT6 binding Ki.
Regarding `Cc1nc2c(N3CCNCC3)cccc2n1S(=O)(=O)c1ccccc1` [Example 5, 2-methyl-1-(phenylsulfonyl)-4-piperazin-1-yl-1H-benzimidazole], the Ki amounted to 0.53 nM.

Staying with this experiment, now noted: read-out: 5-HT6 binding Ki.
As to `Cc1nc2c(N3CCNC(C)C3)cccc2n1S(=O)(=O)c1ccccc1` (stereo in doubt) [Example 114, 2-methyl-4-[(3R)-3-methylpiperazin-1-yl]-1-(phenylsulfonyl)-1H-benzimidazole], the Ki was 3.17 nM. Take `Cc1nc2c(N3CCNC(C)C3)cccc2n1S(=O)(=O)c1cccc2ccccc12` (stereo in doubt) [Example 115, 2-methyl-4-[(3R)-3-methylpiperazin-1-yl]-1-(1-naphthylsulfonyl)-1H-benzimidazole]: the Ki is 1.12 nM. Same read-out and setting: next, `Cc1nc2c(N3CCNC(C)C3)cccc2n1S(=O)(=O)c1ccccc1` (stereo in doubt) [Example 116, 2-methyl-4-[(3S)-3-methylpiperazin-1-yl]-1-(phenylsulfonyl)-1H-benzimidazole]: 0.951 nM; `Cc1nc2c(N3CCNC(C)C3)cccc2n1S(=O)(=O)c1cccc2ccccc12` (stereo in doubt) [Example 117, 2-methyl-4-[(3S)-3-methylpiperazin-1-yl]-1-(1-naphthylsulfonyl)-1H-benzimidazole]: 0.305 nM.

For the compound `CN1CCN(c2cccc3c2ncn3S(=O)(=O)c2cccc3ccccc23)CC1` [Example 1, 4-(4-methylpiperazin-1-yl)-1-(naphthalen-1-ylsulfonyl)-1H-benzo[d]imidazole], the Ki was determined as 0.064 nM. Same read-out and setting: the figure for `O=S(=O)(c1cccc2ccccc12)n1cnc2c(N3CCNCC3)cccc21` [Example 2, 1-(naphthalen-1-ylsulfonyl)-4-(piperazin-1-yl)-1H-benzo[d]imidazole] is 0.165 nM. Take `Cc1nc2c(N3CCNCC3)cccc2n1S(=O)(=O)c1cccc2ccccc12` [Example 4, 2-methyl-1-(1-naphthylsulfonyl)-4-piperazin-1-yl-1H-benzimidazole]: the Ki came to 0.025 nM. Same read-out and setting: next, `CCc1nc2c(N3CCNCC3)cccc2n1S(=O)(=O)c1ccccc1` [Example 6, 2-ethyl-1-(phenylsulfonyl)-4-piperazin-1-yl-1H-benzimidazole]: 0.447 nM; `CCN1CCN(c2cccc3c2ncn3S(=O)(=O)c2ccccc2)CC1` [Example 7, 4-(4-ethylpiperazin-1-yl)-1-(phenylsulfonyl)-1H-benzimidazole]: 0.394 nM. Still for that read-out and setting: next, `CCCCc1nc2c(N3CCNCC3)cccc2n1S(=O)(=O)c1ccccc1` [Example 8, 2-butyl-1-(phenylsulfonyl)-4-piperazin-1-yl-1H-benzimidazole]: 1.1 nM; `Cc1nc2c(N3CCN(C)CC3)cccc2n1S(=O)(=O)c1cccc2ccccc12` [Example 9, 2-methyl-4-(4-methylpiperazin-1-yl)-1-(1-naphthylsulfonyl)-1H-benzimidazole]: 0.004 nM; `O=S(=O)(c1ccc(Cl)cc1)n1cnc2c(N3CCNCC3)cccc21` [Example 10, 1-[(4-chlorophenyl)sulfonyl]-4-piperazin-1-yl-1H-benzimidazole]: 1.32 nM. The same measure, in the same setting: next, `O=S(=O)(c1ccccc1Cl)n1cnc2c(N3CCNCC3)cccc21` [Example 11, 1-[(2-chlorophenyl)sulfonyl]-4-piperazin-1-yl-1H-benzimidazole]: 0.269 nM; `CN1CCN(c2cccc3c2ncn3S(=O)(=O)c2ccccc2)CC1` [Example 12, 4-(4-methylpiperazin-1-yl)-1-(phenylsulfonyl)-1H-benzimidazole]: 1.66 nM.

On to `COc1ccc(S(=O)(=O)n2c(C)nc3c(N4CCNCC4)cccc32)cc1` [Example 13, 1-[(4-methoxyphenyl)sulfonyl]-2-methyl-4-piperazin-1-yl-1H-benzimidazole], for which the Ki turned out to be 1.82 nM. On the same count and under the same terms, next, `Cc1nc2c(N3CCNCC3)cccc2n1S(=O)(=O)c1cccc(OC(F)(F)F)c1` [Example 14, 2-methyl-4-piperazin-1-yl-1-{[3-(trifluoromethoxy)phenyl]sulfonyl}-1H-benzimidazole]: 2.3 nM; `Cc1nc2c(N3CCNCC3)cccc2n1S(=O)(=O)c1ccccc1Cl` [Example 15, 1-[(2-chlorophenyl)sulfonyl]-2-methyl-4-piperazin-1-yl-1H-benzimidazole]: 0.99 nM. As to `Cc1nc2c(N3CCNCC3)cccc2n1S(=O)(=O)c1cccc(Cl)c1` [Example 16, 1-[(3-chlorophenyl)sulfonyl]-2-methyl-4-piperazin-1-yl-1H-benzimidazole], the Ki was 0.99 nM. The same measure, in the same setting: the figure for `Cc1nc2c(N3CCNCC3)cccc2n1S(=O)(=O)c1ccc(Cl)cc1` [Example 17, 1-[(4-chlorophenyl)sulfonyl]-2-methyl-4-piperazin-1-yl-1H-benzimidazole] is 6 nM; for `Cc1cccc(S(=O)(=O)n2c(C)nc3c(N4CCNCC4)cccc32)c1` [Example 18, 2-methyl-1-[(3-methylphenyl)sulfonyl]-4-piperazin-1-yl-1H-benzimidazole] it is 1.3 nM; for `O=S(=O)(c1cccc(Cl)c1)n1cnc2c(N3CCNCC3)cccc21` [Example 19, 1-[(3-chlorophenyl)sulfonyl]-4-piperazin-1-yl-1H-benzimidazole] it is 4.3 nM. Same read-out and setting: the figure for `O=S(=O)(c1ccc(F)cc1)n1cnc2c(N3CCNCC3)cccc21` [Example 20, 1-[(4-fluorophenyl)sulfonyl]-4-piperazin-1-yl-1H-benzimidazole] is 25 nM. On the same count and under the same terms, next, `O=S(=O)(c1ccccc1F)n1cnc2c(N3CCNCC3)cccc21` [Example 21, 1-[(2-fluorophenyl)sulfonyl]-4-piperazin-1-yl-1H-benzimidazole]: 3 nM; `O=S(=O)(c1cccc(F)c1)n1cnc2c(N3CCNCC3)cccc21` [Example 22, 1-[(3-fluorophenyl)sulfonyl]-4-piperazin-1-yl-1H-benzimidazole]: 1.5 nM. With `O=S(=O)(c1ccc2ccccc2c1)n1cnc2c(N3CCNCC3)cccc21` [Example 23, 1-(2-naphthylsulfonyl)-4-piperazin-1-yl-1H-benzimidazole], the Ki was 10.6 nM. In the case of `COc1ccc(S(=O)(=O)n2cnc3c(N4CCNCC4)cccc32)cc1` [Example 24, 1-[(4-methoxyphenyl)sulfonyl]-4-piperazin-1-yl-1H-benzimidazole], the Ki amounted to 15.1 nM. Still for that read-out and setting: next, `O=S(=O)(c1ccc(OC(F)(F)F)cc1)n1cnc2c(N3CCNCC3)cccc21` [Example 25, 4-piperazin-1-yl-1-{[4-(trifluoromethoxy)phenyl]sulfonyl}-1H-benzimidazole]: 89 nM. Still for that read-out and setting: the figure for `Cc1nc2c(N3CCNCC3)cccc2n1S(=O)(=O)c1cccc(F)c1` [Example 26, 1-[(3-fluorophenyl)sulfonyl]-2-methyl-4-piperazin-1-yl-1H-benzimidazole] is 1.7 nM; for `Cc1ccc(S(=O)(=O)n2cnc3c(N4CCNCC4)cccc32)cc1` [Example 27, 1-[(4-methylphenyl)sulfonyl]-4-piperazin-1-yl-1H-benzimidazole] it is 2.5 nM; for `O=S(=O)(c1cccc(OC(F)(F)F)c1)n1cnc2c(N3CCNCC3)cccc21` [Example 28, 4-piperazin-1-yl-1-{[3-(trifluoromethoxy)phenyl]sulfonyl}-1H-benzimidazole] it is 1.95 nM. On the same count and under the same terms, next, `O=S(=O)(c1ccc(F)c(Cl)c1)n1cnc2c(N3CCNCC3)cccc21` [Example 29, 1-[(3-chloro-4-fluorophenyl)sulfonyl]-4-piperazin-1-yl-1H-benzimidazole]: 11.7 nM; `Cc1nc2c(N3CCNCC3)cccc2n1S(=O)(=O)c1ccc(OC(F)(F)F)cc1` [Example 30, 2-methyl-4-piperazin-1-yl-1-{[4-(trifluoromethoxy)phenyl]sulfonyl}-1H-benzimidazole]: 15.8 nM. For `Cc1ccc(S(=O)(=O)n2c(C)nc3c(N4CCNCC4)cccc32)cc1` [Example 31, 2-methyl-1-[(4-methylphenyl)sulfonyl]-4-piperazin-1-yl-1H-benzimidazole], the Ki was determined as 0.467 nM.

Consider `Cc1nc2c(N3CCNCC3)cccc2n1S(=O)(=O)c1ccccc1F` [Example 32, 1-[(2-fluorophenyl)sulfonyl]-2-methyl-4-piperazin-1-yl-1H-benzimidazole], for which the Ki is 2.5 nM. The same measure, in the same setting: next, `O=S(=O)(c1ccccc1OC(F)(F)F)n1cnc2c(N3CCNCC3)cccc21` [Example 33, 4-piperazin-1-yl-1-{[2-(trifluoromethoxy)phenyl]sulfonyl}-1H-benzimidazole]: 0.72 nM. On to `COc1cccc(S(=O)(=O)n2cnc3c(N4CCNCC4)cccc32)c1` [Example 34, 1-[(3-methoxyphenyl)sulfonyl]-4-piperazin-1-yl-1H-benzimidazole], for which the Ki turned out to be 1.2 nM. On the same count and under the same terms, next, `Cc1ccc(S(=O)(=O)n2cnc3c(N4CCNCC4)cccc32)c2ccccc12` [Example 35, 1-[(4-methyl-1-naphthyl)sulfonyl]-4-piperazin-1-yl-1H-benzimidazole]: 1.1 nM; `Cc1cccc(S(=O)(=O)n2cnc3c(N4CCNCC4)cccc32)c1` [Example 36, 1-[(3-methylphenyl)sulfonyl]-4-piperazin-1-yl-1H-benzimidazole]: 1.11 nM; `Cc1nc2c(N3CCNCC3)cccc2n1S(=O)(=O)c1ccc(F)cc1` [Example 38, 1-[(4-fluorophenyl)sulfonyl]-2-methyl-4-piperazin-1-yl-1H-benzimidazole]: 10.5 nM.

Regarding `Cc1ccccc1S(=O)(=O)n1cnc2c(N3CCNCC3)cccc21` [Example 39, 1-[(2-methylphenyl)sulfonyl]-4-piperazin-1-yl-1H-benzimidazole], the Ki was found to be 1.15 nM. Still for that read-out and setting: next, `O=S(=O)(c1ccc(C(F)(F)F)cc1)n1cnc2c(N3CCNCC3)cccc21` [Example 40, 4-piperazin-1-yl-1-{[4-(trifluoromethyl)phenyl]sulfonyl}-1H-benzimidazole]: 18.9 nM.

In general, Ki refers to a dissociation constant, usually derived from enzyme kinetics or from competition with a known ligand.
